From US20180147196A1, “PYRIDIN-3-YL ACETIC ACID DERIVATIVES AS INHIBITORS OF HUMAN IMMUNODEFICIENCY VIRUS REPLICATION” (priority 2015, published 2018)
Like-named read-outs stand apart in the source and are kept apart here.

System: NL-RLuc virus
Test: Inhibition of HIV replication (NL-RLuc virus in MT-2 cells, luciferase readout)
Format: cell-based
Details: Human immunodeficiency virus 1, MT2, 120 h
Text: Inhibition of HIV replication: A recombinant NL-RLuc proviral clone was constructed in which a section of the nef gene from NL4-3 was replaced with the Renilla Luciferase gene. This virus is fully infectious and can undergo multiple cycles of replication in cell culture. In addition, the luciferous reporter provides a simple and easy method for quantitating the extent of virus growth and consequently, the antiviral activity of test compounds. The plasmid pNLRLuc contains the proviral NL-Rluc DNA cloned into pUC18 at the Pvull site. The NL-RLuc virus was prepared by transfection of 293T cells with the plasmid pNLRLuc. Transfections were performed using the LipofectAMINE PLUS kit from Invitrogen (Carlsbad, Calif.) according to the manufacturer and the virus generated was titered in MT-2 cells. For susceptibility analyses, the titrated virus was used to infect MT-2 cells in the presence of compound, and after 5 days of incubation, cells were processed and quantitated for virus growth by the amount of expressed luciferase. Assay media was RPMI 1640 supplemented with 10% heat inactivated fetal bovine serum (FBS), 100 units/ml penicillin G/100 units/ml streptomycin, 10 mM HEPES buffer pH 7.55 and 2 mM L-glutamine. The results from at least 2 experiments were used to calculate the EC50 values. Luciferase was quantitated using the Dual Luciferase kit from Promega (Madison, Wis.). Susceptibility of viruses to compounds was determined by incubation in the presence of serial dilutions of the compound. The 50% effective concentration (EC50) was calculated by using the exponential form of the median effect equation where (Fa)=1/[1+(ED50/drug conc.)^m] (Johnson V A, Byington R T. Infectivity Assay. In Techniques in HIV Research. ed. Aldovini A, Walker BD. 71-76. New York: Stockton Press.1990). Activity equal to A refers to a compound having an EC50<100 nM, while B and C denote compounds having an EC50 between 100 nM and 1 uM (B) or >1 uM (C).

SMILES | EC50 (read-out: Activity) | EC50 (read-out: EC50 μM)
Cc1nc(C)c([C@H](OC(C)(C)C)C(=O)O)c(N2CCC(C)(C)CC2)c1C#CCOCc1ccccc1 [Example 1, (S)-2-(5-(3-(Benzyloxy)prop-1-yn-1-yl)-4-(4,4-dimethylpiperidin-1-yl)-2,6-dimethylpyridin-3-yl)-2-(tert-butoxy)acetic acid] | 0.1 to 1 µM | 0.282 µM
Cc1nc(C)c([C@H](OC(C)(C)C)C(=O)O)c(N2CCC(C)(C)CC2)c1C#CC1(O)CCN(Cc2ccccc2)CC1 [Example 2, (S)-2-(5-((1-Benzyl-4-hydroxypiperidin-4-yl)ethynyl)-4-(4,4-dimethylpiperidin-1-yl)-2,6-dimethylpyridin-3-yl)-2-(tert-butoxy)acetic acid] | < 0.1 µM | 0.064 µM
Cc1nc(C)c([C@H](OC(C)(C)C)C(=O)O)c(N2CCC(C)(C)CC2)c1/C=C/c1ccc(F)cc1 [Example 3, (S,E)-2-(tert-Butoxy)-2-(4-(4,4-dimethylpiperidin-1-yl)-5-(4-fluorostyryl)-2,6-dimethylpyridin-3-yl)acetic acid] | < 0.1 µM | –
Cc1nc(C)c([C@H](OC(C)(C)C)C(=O)O)c(N2CCC(C)(C)CC2)c1CCc1ccc(F)cc1 [Example 4, (S)-2-(tert-Butoxy)-2-(4-(4,4-dimethylpiperidin-1-yl)-5-(4-fluorophenethyl)-2,6-dimethylpyridin-3-yl)acetic acid] | < 0.1 µM | –
Cc1nc(C)c([C@H](OC(C)(C)C)C(=O)O)c(N2CCC(C)(C)CC2)c1/C=C/c1ccc(-c2ccccc2)cc1 [Example 5, (S,E)-2-(5-(2-([1,1′-Biphenyl]-4-yl)vinyl)-4-(4,4-dimethylpiperidin-1-yl)-2,6-dimethylpyridin-3-yl)-2-(tert-butoxy)acetic acid] | < 0.1 µM | 0.035 µM
Cc1nc(C)c([C@H](OC(C)(C)C)C(=O)O)c(N2CCC(C)(C)CC2)c1CCc1ccc(-c2ccccc2)cc1 [Example 6, (S)-2-(5-(2-([1,1′-Biphenyl]-4-yl)ethyl)-4-(4,4-dimethylpiperidin-1-yl)-2,6-dimethylpyridin-3-yl)-2-(tert-butoxy)acetic acid] | < 0.1 µM | –
Cc1nc(C)c([C@H](OC(C)(C)C)C(=O)O)c(N2CCC(C)(C)CC2)c1/C=C/c1ccc(C(F)(F)F)cc1 [Example 7, (S,E)-2-(tert-Butoxy)-2-(4-(4,4-dimethylpiperidin-1-yl)-2,6-dimethyl-5-(4-(trifluoromethyl)styryl)pyridin-3-yl)acetic acid] | < 0.1 µM | –
Cc1nc(C)c([C@H](OC(C)(C)C)C(=O)O)c(N2CCC(C)(C)CC2)c1CCc1ccc(C(F)(F)F)cc1 [Example 8, (S)-2-(tert-Butoxy)-2-(4-(4,4-dimethylpiperidin-1-yl)-2,6-dimethyl-5-(4-(trifluoromethyl)phenethyl)pyridin-3-yl)acetic acid] | 0.1 to 1 µM | –
Cc1nc(C)c([C@H](OC(C)(C)C)C(=O)O)c(N2CCC(C)(C)CC2)c1/C=C/Cc1ccccc1 [Example 9, (S,E)-2-(tert-Butoxy)-2-(4-(4,4-dimethylpiperidin-1-yl)-2,6-dimethyl-5-(3-phenylprop-1-en-1-yl)pyridin-3-yl)acetic acid] | 0.1 to 1 µM | 0.281 µM
Cc1nc(C)c([C@H](OC(C)(C)C)C(=O)O)c(N2CCC(C)(C)CC2)c1CCCc1ccccc1 [Example 10, (S)-2-(tert-Butoxy)-2-(4-(4,4-dimethylpiperidin-1-yl)-2,6-dimethyl-5-(3-phenylpropyl)pyridin-3-yl)acetic acid] | 0.1 to 1 µM | –
Cc1nc(C)c([C@H](OC(C)(C)C)C(=O)O)c(N2CCC(C)(C)CC2)c1/C=C/c1ccccc1 [Example 11, (S,E)-2-(tert-Butoxy)-2-(4-(4,4-dimethylpiperidin-1-yl)-2,6-dimethyl-5-styrylpyridin-3-yl)acetic acid] | < 0.1 µM | 0.027 µM
Cc1nc(C)c([C@H](OC(C)(C)C)C(=O)O)c(N2CCC(C)(C)CC2)c1CCc1ccccc1 [Example 12, (S)-2-(tert-Butoxy)-2-(4-(4,4-dimethylpiperidin-1-yl)-2,6-dimethyl-5-phenethylpyridin-3-yl)acetic acid] | 0.1 to 1 µM | –
Cc1nc(C)c([C@H](OC(C)(C)C)C(=O)O)c(N2CCC(C)(C)CC2)c1Br [Example 13, (S)-2-(5-Bromo-4-(4,4-dimethylpiperidin-1-yl)-2,6-dimethylpyridin-3-yl)-2-(tert-butoxy)acetic acid] | 0.1 to 1 µM | –
Cc1nc(C)c([C@H](OC(C)(C)C)C(=O)O)c(N2CCC(C)(C)CC2)c1C1=CCCCC1 [Example 14, (S)-2-(tert-Butoxy)-2-(5-(cyclohex-1-en-1-yl)-4-(4,4-dimethylpiperidin-1-yl)-2,6-dimethylpyridin-3-yl)acetic acid] | 0.1 to 1 µM | 0.136 µM
Cc1nc(C)c([C@H](OC(C)(C)C)C(=O)O)c(N2CCC(C)(C)CC2)c1C1=CCC(C(C)(C)C)CC1 (stereo partly drawn) [Example 15, (2S)-2-(tert-Butoxy)-2-(5-(4-(tert-butyl)cyclohex-1-en-1-yl)-4-(4,4-dimethylpiperidin-1-yl)-2,6-dimethylpyridin-3-yl)acetic acid] | 0.1 to 1 µM | –
Cc1nc(C)c([C@H](OC(C)(C)C)C(=O)O)c(N2CCC(C)(C)CC2)c1C1=CCN(C(=O)OC(C)(C)C)CC1 [Example 16, (S)-2-(tert-Butoxy)-2-(1′-(tert-butoxycarbonyl)-4-(4,4-dimethylpiperidin-1-yl)-2,6-dimethyl-1′,2′,3′,6′-tetrahydro-[3,4′-bipyridin]-5-yl)acetic acid] | < 0.1 µM | –
Cc1nc(C)c([C@H](OC(C)(C)C)C(=O)O)c(N2CCC(C)(C)CC2)c1/C=C/CNC(=O)OCc1ccccc1 [Example 17, (S,E)-2-(5-(3-(((Benzyloxy)carbonyl)amino)prop-1-en-1-yl)-4-(4,4-dimethylpiperidin-1-yl)-2,6-dimethylpyridin-3-yl)-2-(tert-butoxy)acetic acid] | < 0.1 µM | –
COC(=O)NC/C=C/c1c(C)nc(C)c([C@H](OC(C)(C)C)C(=O)O)c1N1CCC(C)(C)CC1 [Example 18, (S,E)-2-(tert-Butoxy)-2-(4-(4,4-dimethylpiperidin-1-yl)-5-(3-((methoxycarbonyl)amino)prop-1-en-1-yl)-2,6-dimethylpyridin-3-yl)acetic acid] | 0.1 to 1 µM | –
Cc1nc(C)c([C@H](OC(C)(C)C)C(=O)O)c(N2CCC(C)(C)CC2)c1C1=CCN(C(=O)OCc2ccccc2)CC1 [Example 19, (S)-2-(1′-((Benzyloxy)carbonyl)-4-(4,4-dimethylpiperidin-1-yl)-2,6-dimethyl-1′,2′,3′,6′-tetrahydro-[3,4′-bipyridin]-5-yl)-2-(tert-butoxy)acetic acid] | < 0.1 µM | –
COC(=O)N1CC=C(c2c(C)nc(C)c([C@H](OC(C)(C)C)C(=O)O)c2N2CCC(C)(C)CC2)CC1 [Example 20, (S)-2-(tert-Butoxy)-2-(4-(4,4-dimethylpiperidin-1-yl)-1′-(methoxycarbonyl)-2,6-dimethyl-1′,2′,3′,6′-tetrahydro-[3,4′-bipyridin]-5-yl)acetic acid] | 0.1 to 1 µM | –
Cc1nc(C)c([C@H](OC(C)(C)C)C(=O)O)c(N2CCC(C)(C)CC2)c1C1=CCNCC1 [Example 21, (S)-2-(tert-Butoxy)-2-(4-(4,4-dimethylpiperidin-1-yl)-2,6-dimethyl-1′,2′,3′,6′-tetrahydro-[3,4′-bipyridin]-5-yl)acetic acid] | > 1 µM | 2.21 µM
Cc1nc(C)c([C@H](OC(C)(C)C)C(=O)O)c(N2CCC(C)(C)CC2)c1C1=CCN(CCc2ccc(F)cc2)CC1 [Example 22, (S)-2-(tert-Butoxy)-2-(4-(4,4-dimethylpiperidin-1-yl)-1′-(4-fluorophenethyl)-2,6-dimethyl-1′,2′,3′,6′-tetrahydro-[3,4′-bipyridin]-5-yl)acetic acid] | 0.1 to 1 µM | –
Cc1nc(C)c([C@H](OC(C)(C)C)C(=O)O)c(N2CCC(C)(C)CC2)c1C1=CCN(CCCc2ccc(F)cc2)CC1 [Example 23, (S)-2-(tert-Butoxy)-2-(4-(4,4-dimethylpiperidin-1-yl)-1′-(3-(4-fluorophenyl)propyl)-2,6-dimethyl-1′,2′,3′,6′-tetrahydro-[3,4′-bipyridin]-5-yl)acetic acid] | < 0.1 µM | –
Cc1nc(C)c([C@H](OC(C)(C)C)C(=O)O)c(N2CCC(C)(C)CC2)c1C#N [Example 24, (S)-2-(tert-Butoxy)-2-(5-cyano-4-(4,4-dimethylpiperidin-1-yl)-2,6-dimethylpyridin-3-yl)acetic acid] | 0.1 to 1 µM | –
Cc1nc(C)c([C@H](OC(C)(C)C)C(=O)O)c(N2CCC(C)(C)CC2)c1C1=CC(CCOc2ccc(F)cc2)C1 (stereo partly drawn) [Example 25, (2S)-2-(tert-Butoxy)-2-(4-(4,4-dimethylpiperidin-1-yl)-5-(3-(2-(4-fluorophenoxy)ethyl)cyclobut-1-en-1-yl)-2,6-dimethylpyridin-3-yl)acetic acid] | < 0.1 µM | –
Cc1nc(C)c([C@H](OC(C)(C)C)C(=O)O)c(N2CCC(C)(C)CC2)c1C [Example 26, (S)-2-(tert-Butoxy)-2-(4-(4,4-dimethylpiperidin-1-yl)-2,5,6-trimethylpyridin-3-yl)acetic acid] | < 0.1 µM | 0.097 µM
